Measured values as given in patent US11583516B2, “Dash inhibitors, and uses related thereto” (Trustees of Tufts College, priority 2016, dated 2023).
Where two headings read alike, the source gives them in different places.

Columns and labels:
MV4;11 cells = experiment: Cell line drug sensitivity (CellTiter-Glo); type: cell-based; settings: MV4;11, AML M5; 48 h; read-out: IC50
G-CSF = experiment: Serum cytokine induction in mice (G-CSF screen); type: in vivo, BALB/c mice
Excerpt: No. MKC00B) • IL-18 (R&D Systems, Cat. […] Systems, Cat. No. […])

cancer = settings: in the clinic; cited from earlier work
NB4 cells = experiment: Cell line drug sensitivity (CellTiter-Glo); type: cell-based; settings: NB4, AML/APL M3; 48 h; read-out: IC50
THP-1 sgGFP = experiment: Pyroptosis IC50 in cells; type: cell-based
CT26 tumor = type: in vivo; settings: CT26 model
MV4;11 Luc-Neo = experiment: Pyroptosis IC50 in cells; type: cell-based
AML cell lines = experiment: AML cell line sensitivity, summary over the panel; type: cell-based; settings: most of these AML cell lines
Procedure: (§1) SET-2, RS4;11, and SKM-1 cells were purchased from DSMZ. HL-60, MV4;11, OCI-AML2, NB4, MOLM-13, NOMO-1, DAOY, HEL, IMR-5, K562, Kasumi-1, ONS-76, RDES-1, and TC-71 cells were a gift from Alex Kentsis and verified using STR genotyping (Genetica). […] MCF-7, Jurkat, THP-1, U937, HL-60, MV4;11, OCI-AML2, NB4, MOLM-13, NOMO-1, HEL, K562, SET-2, RS4;11, SKM-1 and Kasumi-1 were grown in RPMI-1640 medium with 10% FBS. All cells were grown at 37° C. in a 5% CO2 incubator. Cell lines were tested for mycoplasma using the MycoAlert Mycoplasma Detection Kit (Lonza).
(§2) Cells were plated (2000 cells/well) in white, 384-well clear bottom plates using an EL406 Microplate Washer/Dispenser (BioTek) in 25 μL final volume of media. Compounds were added using a pintool (CyBio) and cells were incubated for 48 h at 37° C. Assay plates were then removed from the incubator and allowed to equilibrate to room temperature on the bench top before addition of 10 μL of CellTiter-Glo reagent (Promega) according to the manufacturer's instructions. Assay plates were shaken on an orbital shaker for 2 minutes and incubated at room temperature on the bench top for 10 minutes. Luminescence was then read using a Cytation 5 Cell Imaging Multi-Mode Reader (BioTek). (FIG. 6)

K562 cells = experiment: Cell line drug sensitivity (CellTiter-Glo); type: cell-based; settings: K562, CML/Erythroleukemia; 48 h; read-out: IC50
Procedure: as §1, §2

KG-1 cells = experiment: Cell line drug sensitivity (CellTiter-Glo); type: cell-based; settings: KG-1, AML M0; 48 h; read-out: IC50
Procedure: as §1, §2

MOLM-13 cells = experiment: Cell line drug sensitivity (CellTiter-Glo); type: cell-based; settings: MOLM-13, AML M5; 48 h; read-out: IC50
Procedure: as §1, §2

HL-60 cells = experiment: Cell line drug sensitivity (CellTiter-Glo); type: cell-based; settings: HL-60, AML M2; 48 h; read-out: IC50
Procedure: as §1, §2

HT-1080 cells = experiment: Cell line drug sensitivity (CellTiter-Glo); type: cell-based; settings: HT-1080, Fibrosarcoma; 48 h; read-out: IC50
Procedure: as §1, §2

MCF7 cells = experiment: Cell line drug sensitivity (CellTiter-Glo); type: cell-based; settings: MCF7, Breast; 48 h; read-out: IC50
Procedure: as §1, §2

HEL cells = experiment: Cell line drug sensitivity (CellTiter-Glo); type: cell-based; settings: AML/Erythroleukemis M6, 48 h, read-out: IC50
Procedure: as §1, §2

NOMO-1 cells = experiment: Cell line drug sensitivity (CellTiter-Glo); type: cell-based; settings: NOMO-1, AML M5; 48 h; read-out: IC50
Procedure: as §1, §2

RDES-1 cells = experiment: Cell line drug sensitivity (CellTiter-Glo); type: cell-based; settings: RDES-1, Ewing's sarcoma; 48 h; read-out: IC50
Procedure: as §1, §2

OCI-AML3 cells = experiment: Cell line drug sensitivity (CellTiter-Glo); type: cell-based; settings: OCI-AML3, AML M4; 48 h; read-out: IC50
Procedure: as §1, §2

Jurkat cells = experiment: Cell line drug sensitivity (CellTiter-Glo); type: cell-based; settings: T-ALL, 48 h, read-out: IC50
Procedure: as §1, §2

TC-71 cells = experiment: Cell line drug sensitivity (CellTiter-Glo); type: cell-based; settings: TC-71, Ewing's sarcoma; 48 h; read-out: IC50
Procedure: as §1, §2

U937 cells = experiment: Cell line drug sensitivity (CellTiter-Glo); type: cell-based; settings: U937, AML/histiocytic lymphoma M5; 48 h; read-out: IC50
Procedure: as §1, §2

ONS-76 cells = experiment: Cell line drug sensitivity (CellTiter-Glo); type: cell-based; settings: ONS-76, Medulloblastoma; 48 h; read-out: IC50
Procedure: as §1, §2

DAOY cells = experiment: Cell line drug sensitivity (CellTiter-Glo); type: cell-based; settings: DAOY, Medulloblastoma; 48 h; read-out: IC50
Procedure: as §1, §2

SKM-1 cells = experiment: Cell line drug sensitivity (CellTiter-Glo); type: cell-based; settings: SKM-1, AML M5; 48 h; read-out: IC50
Procedure: as §1, §2

Kasumi-1 cells = experiment: Cell line drug sensitivity (CellTiter-Glo); type: cell-based; settings: Kasumi-1, AML M2; 48 h; read-out: IC50
Procedure: as §1, §2

SET-2 cells = experiment: Cell line drug sensitivity (CellTiter-Glo); type: cell-based; settings: SET-2, AML/MPN; 48 h; read-out: IC50
Procedure: as §1, §2

IMR-5 cells = experiment: Cell line drug sensitivity (CellTiter-Glo); type: cell-based; settings: IMR-5, Neuroblastoma; 48 h; read-out: IC50
Procedure: as §1, §2

THP-1 cells = experiment: Cell line drug sensitivity (CellTiter-Glo); type: cell-based; settings: THP-1, AML M5; 48 h; read-out: IC50
Procedure: as §1, §2

RS4;11 cells = experiment: Cell line drug sensitivity (CellTiter-Glo); type: cell-based; settings: RS4;11, AML/B-ALL; 48 h; read-out: IC50
CT26 cells = experiment: CT26 cell viability; type: cell-based
RAW 264.7 WT cells = experiment: Pyroptosis IC50 in cells; type: cell-based
MB49 tumor = experiment: MB49 efficacy studies; type: in vivo, C57BL/6 mice
[1] = Maximum tolerated dose study (single dose); type: in vivo, Sprague Dawley rats; settings: with Pyrrophenone or AACOCF3, based on serum drug levels
Excerpt: Bars show the MTD single dose in SD rats prior to seeing animal death. […] See also FIG. 33 for a similar comparison using cPLA2 inhibitors instead of COX inhibitors.
Bars show the MTD single dose in SD rats prior to seeing animal death. Based on serum drug levels, the addition of a cPLA2 inhibitors to the I-DASH inhibitor increases that MTD dose by at least 20-fold.
Bars show the MTD single dose in SD rats prior to seeing animal death.

CC(C)[C@H](N)C(=O)N1CCC[C@H]1B(O)O [ARI-2054, Valine-boroProline]
IC50 (MV4;11 cells): 0.078 µM | Average [G-CSF] at 6 hrs (G-CSF; 20 μg/animal PO): 55000 pg/mL | Average [G-CSF] at 6 hrs (G-CSF; 20 μg/animal SC): 97000 pg/mL | Clinical response (cancer): some partial and complete responses | Clinical toxicity (cancer): discontinued due to dose-limiting toxicity | IC50 (NB4 cells): 0.1 µM | IC50 (THP-1 sgGFP): 0.168 µM | Inhibition of tumor growth (average) (CT26 tumor; 10 micrograms): about 30% | Inhibition of tumor growth (average) (CT26 tumor; 20 micrograms): ~80% | IC50 (MV4;11 Luc-Neo): 0.06 µM | IC50 (AML cell lines): > 0.1 µM | IC50 (K562 cells): > 60 µM | IC50 (KG-1 cells): 0.02 µM | IC50 (MOLM-13 cells): 0.12 µM | IC50 (HL-60 cells): 0.115 µM | IC50 (HT-1080 cells): > 60 µM | IC50 (MCF7 cells): > 60 µM | IC50 (HEL cells): > 60 µM | IC50 (NOMO-1 cells): 0.16 µM | IC50 (RDES-1 cells): > 60 µM | IC50 (OCI-AML3 cells): 0.08 µM | IC50 (Jurkat cells): > 60 µM | IC50 (TC-71 cells): > 60 µM | IC50 (U937 cells): > 60 µM | IC50 (ONS-76 cells): > 60 µM | IC50 (DAOY cells): > 60 µM | IC50 (SKM-1 cells): 0.044 µM | IC50 (Kasumi-1 cells): > 60 µM | IC50 (SET-2 cells): 0.006 µM | IC50 (IMR-5 cells): > 60 µM | IC50 (THP-1 cells): 0.206 µM | IC50 (RS4;11 cells): 0.147 µM | EC50 (CT26 cells): > 1000 µM | IC50 (RAW 264.7 WT cells): 0.098 µM | Tumor regression in combination with celecoxib (MB49 tumor; 20 microgram dose of Val-boroPro plus celecoxib): facilitated the achievement of tumor regression | Antitumor activity in combination with celecoxib (MB49 tumor; Val-boroPro plus celecoxib): increased the antitumor activity of Val-boroPro markedly (statistically significantly) and in a dose-dependent manner | Increase of MTD dose by addition of a cPLA2 inhibitor [1]: at least 20 fold
